{"source": "patent US7888050B2", "about": "“Method for quantifying phosphokinase activity on proteins” (Life Technologies Corporation, priority 2000, dated 2011)", "target": "T1, human EGFR (Homo sapiens, UniProt P00533)", "T1 construct": "purchased Sigma E-2645; host or cells: A431 human carcinoma cells (natural source)", "T1 sequence (P00533 25-1210)": "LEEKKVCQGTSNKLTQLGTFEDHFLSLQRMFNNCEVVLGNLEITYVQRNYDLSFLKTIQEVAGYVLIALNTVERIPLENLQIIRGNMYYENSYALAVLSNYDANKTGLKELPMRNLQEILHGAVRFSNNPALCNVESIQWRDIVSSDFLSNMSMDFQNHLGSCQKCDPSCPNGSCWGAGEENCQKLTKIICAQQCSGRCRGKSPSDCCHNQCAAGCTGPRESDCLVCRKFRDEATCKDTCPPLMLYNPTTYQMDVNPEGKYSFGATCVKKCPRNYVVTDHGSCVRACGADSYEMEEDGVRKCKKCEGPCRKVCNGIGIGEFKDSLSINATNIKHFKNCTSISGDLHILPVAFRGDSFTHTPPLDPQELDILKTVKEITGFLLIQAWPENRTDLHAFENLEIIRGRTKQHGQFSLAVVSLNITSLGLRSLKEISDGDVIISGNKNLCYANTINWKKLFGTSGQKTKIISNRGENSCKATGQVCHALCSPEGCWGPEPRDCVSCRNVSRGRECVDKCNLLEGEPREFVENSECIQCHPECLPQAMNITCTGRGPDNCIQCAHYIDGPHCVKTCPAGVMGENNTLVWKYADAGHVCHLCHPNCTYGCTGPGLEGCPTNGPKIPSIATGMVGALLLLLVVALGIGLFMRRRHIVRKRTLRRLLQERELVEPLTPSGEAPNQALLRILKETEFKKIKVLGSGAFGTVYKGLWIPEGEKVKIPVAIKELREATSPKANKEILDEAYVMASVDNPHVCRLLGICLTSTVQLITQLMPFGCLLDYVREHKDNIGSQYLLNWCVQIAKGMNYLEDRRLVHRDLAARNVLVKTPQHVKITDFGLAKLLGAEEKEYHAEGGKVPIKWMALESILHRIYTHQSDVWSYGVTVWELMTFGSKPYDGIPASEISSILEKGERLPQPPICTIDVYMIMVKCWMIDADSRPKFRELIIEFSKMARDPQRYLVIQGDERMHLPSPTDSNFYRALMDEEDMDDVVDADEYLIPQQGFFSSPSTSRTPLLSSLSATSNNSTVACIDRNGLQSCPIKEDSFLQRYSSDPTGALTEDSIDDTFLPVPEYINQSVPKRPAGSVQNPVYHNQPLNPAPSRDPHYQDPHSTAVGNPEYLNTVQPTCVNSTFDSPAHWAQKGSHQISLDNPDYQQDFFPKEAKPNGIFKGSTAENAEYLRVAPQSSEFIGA", "assay": "EGFR autophosphorylation, EGFR [pY845] PSSA ELISA", "type": "biochemical", "details": "purified human EGFR, 1 uM ATP, 30 minutes at 30° C.; FIG. 16", "source_text": "EGFR System: This model system presents an analysis of the cell surface receptor Epidermal Growth Factor Receptor (EGFR). This protein is a large transmembrane signaling protein with multiple phosphorylation sites consisting of phospho-threonine, phospho-serine and phospho-tyrosine residues. EGFR protein: Human EGFR protein was purified from human carcinoma A431 cells by affinity purification. The product is purchased from Sigma (St. Louis, Mo.; cat #E-2645). EGFR [pY^11731 PSSA: Rabbit antiserum was produced against a chemically synthesized phosphopeptide derived from the region of EGFR that contains tyrosine 1173. The sequence is conserved in human, mouse, and rat. Antibody was purified from serum by sequential epitope-specific chromatography. […] The final product is generated by affinity chromatography using an EGFR derived peptide that is phosphorylated at tyrosine 1173. […] EGFR [Py^8451 PSSA: Prepared essentially as EGFR [pY^1173] PSSA but using chemically synthesized phosphopeptides from the region that contains tyrosine 845. EGFR [Pan] monoclonal antibody: The capture antibody is a mouse monoclonal antibody, clone 199.12, available commercially from Neomarkers, Inc. (Union City, Calif.). […] This antibody will bind to both non-phosphorylated and phosphorylated forms of EGFR protein and therefore is used as an initial capture antibody in the EGFR ELISA. EGFR [Pan] […]", "data": [{"smiles": "CNc1cc2c(Nc3cccc(Br)c3)ncnc2cn1", "note": "[PD158780]", "values": [{"measurement": "EGFR [pY845] phosphorylation (autophosphorylation)", "value": "inhibition of that activity"}]}]}
